Results taken from patent US9630922B2, “3-spiro-7-hydroxamic acid tetralins as HDAC inhibitors” (Forma Therapeutics, Inc., priority 2015, dated 2017).

Biological target: T1, HDAC6 (Homo sapiens, UniProt Q9UBN7)
T1 construct: Full length human recombinant HDAC6 protein was expressed in baculoviral system; made in house; host or cells: baculoviral system
T1 sequence (Q9UBN7 1-1215): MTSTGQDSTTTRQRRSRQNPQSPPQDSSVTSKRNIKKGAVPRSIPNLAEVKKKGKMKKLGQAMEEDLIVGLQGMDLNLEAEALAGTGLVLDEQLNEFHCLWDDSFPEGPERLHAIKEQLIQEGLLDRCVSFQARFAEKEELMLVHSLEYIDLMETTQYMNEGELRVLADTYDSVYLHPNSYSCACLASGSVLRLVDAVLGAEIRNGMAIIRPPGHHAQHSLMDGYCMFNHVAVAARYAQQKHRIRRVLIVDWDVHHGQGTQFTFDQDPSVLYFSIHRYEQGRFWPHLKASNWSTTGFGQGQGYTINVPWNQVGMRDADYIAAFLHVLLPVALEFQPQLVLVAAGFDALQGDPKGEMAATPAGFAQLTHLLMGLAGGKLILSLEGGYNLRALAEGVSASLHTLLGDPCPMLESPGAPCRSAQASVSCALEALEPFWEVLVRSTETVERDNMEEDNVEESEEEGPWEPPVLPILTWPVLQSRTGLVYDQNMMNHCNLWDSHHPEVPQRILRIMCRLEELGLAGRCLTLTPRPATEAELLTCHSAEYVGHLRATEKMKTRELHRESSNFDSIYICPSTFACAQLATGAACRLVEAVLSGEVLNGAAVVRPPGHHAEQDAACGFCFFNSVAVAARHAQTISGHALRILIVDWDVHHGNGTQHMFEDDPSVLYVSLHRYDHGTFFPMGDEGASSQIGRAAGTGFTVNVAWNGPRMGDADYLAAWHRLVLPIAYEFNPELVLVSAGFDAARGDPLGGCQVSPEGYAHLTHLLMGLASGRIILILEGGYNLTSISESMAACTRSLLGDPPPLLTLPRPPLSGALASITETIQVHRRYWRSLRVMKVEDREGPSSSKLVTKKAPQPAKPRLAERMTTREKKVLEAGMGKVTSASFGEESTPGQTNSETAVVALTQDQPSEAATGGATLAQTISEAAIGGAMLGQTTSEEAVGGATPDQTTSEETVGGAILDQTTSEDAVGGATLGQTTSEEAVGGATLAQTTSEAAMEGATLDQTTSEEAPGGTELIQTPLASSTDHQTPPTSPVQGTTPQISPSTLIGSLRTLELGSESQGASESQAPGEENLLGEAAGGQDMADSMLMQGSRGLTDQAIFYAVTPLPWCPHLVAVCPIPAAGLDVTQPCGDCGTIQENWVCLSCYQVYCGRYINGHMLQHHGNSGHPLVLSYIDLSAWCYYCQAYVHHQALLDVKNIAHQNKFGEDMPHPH
Assay: In vitro Histone Deacetylase Assay (enzymatic HDAC6 electrophoretic mobility shift assay)
Assay type: biochemical
Settings: full length human recombinant HDAC6, 1 nM enzyme, 2 μM peptide substrate RHKK(Ac)-NH2, 25° C.; read-out: HDAC6 activity range
Outline: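 Deacetylation was read by microfluidic mobility shift as product/(substrate+product) peak ratio and normalised to 0% and 100% inhibition controls. Reactions used 1 nM baculovirus-expressed full-length human HDAC6 and 2 μM labelled RHKK(Ac)-NH2 in pH 7.5 HEPES buffer with 1% DMSO at 25 °C. IC50 was from 4-parameter fits of 12 concentrations.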

## O=C(NO)c1ccc2c(c1)CC[C@]1(CCN(Cc3ccccc3Cl)C1=O)C2 [Compound I-40, (R)-1′-(2-chlorobenzyl)-N-hydroxy-2′-oxo-3,4-dihydro-1H-spiro[naphthalene-2,3′-pyrrolidine]-6-carboxamide]
  IC50: ≤ 100 nM

## O=C(NO)c1ccc2c(c1)CCC1(CC(=O)N(CC3COC3)C1)C2 (single isomer, unassigned) [Compound I-215]
  IC50: ≤ 100 nM

## CS(=O)(=O)c1ccc(CN2CC[C@]3(CCc4cc(C(=O)NO)ccc4C3)C2=O)cc1 [Compound I-88, (R)-N-hydroxy-1′-(4-(methylsulfonyl)benzyl)-2′-oxo-3,4-dihydro-1H-spiro[naphthalene-2,3′-pyrrolidine]-6-carboxamide]
  IC50: ≤ 100 nM

## Cn1cc(N2CC[C@]3(CCc4cc(C(=O)NO)ccc4C3)C2=O)cn1 [Compound I-168, (R)-N-hydroxy-1′-(1-methyl-1H-pyrazol-4-yl)-2′-oxo-3,4-dihydro-1H-spiro[naphthalene-2,3′-pyrrolidine]-6-carboxamide]
  IC50: ≤ 100 nM

## O=C(NO)c1ccc2c(c1)CCC1(CCCN(CC3COC3)C1=O)C2 (single isomer, unassigned) [Compound I-195]
  IC50: ≤ 100 nM

## O=C(NO)c1ccc2c(c1)CC[C@@]1(CCN(CC3CCC3)C1=O)C2 [Compound I-61, (S)-1′-(cyclobutylmethyl)-N-hydroxy-2′-oxo-3,4-dihydro-1H-spiro[naphthalene-2,3′-pyrrolidine]-6-carboxamide]
  IC50: 100 to 500 nM

## O=C(NO)c1ccc2c(c1)CC[C@]1(CCN(Cc3cccnc3)C1=O)C2 [Compound I-18, (R)-N-hydroxy-2′-oxo-1′-(pyridin-3-ylmethyl)-3,4-dihydro-1H-spiro[naphthalene-2,3′-pyrrolidine]-6-carboxamide]
  IC50: ≤ 100 nM

## O=C(NO)c1ccc2c(c1)CCC1(CC(=O)N(c3cccnc3)C1)C2 (single isomer, unassigned) [Compound I-221]
  IC50: ≤ 100 nM

## O=C(NO)c1ccc2c(c1)CC[C@]1(CC(=O)N(CC3CCC3)C1)C2 (single isomer, unassigned) [Compound I-205]
  IC50: ≤ 100 nM

## O=C(NO)c1ccc2c(c1)CC[C@@]1(CCN(Cc3ccc(Cl)cc3)C1=O)C2 [Compound I-82, (S)-1′-(4-chlorobenzyl)-N-hydroxy-2′-oxo-3,4-dihydro-1H-spiro[naphthalene-2,3′-pyrrolidine]-6-carboxamide]
  IC50: ≤ 100 nM

## O=C(NO)c1ccc2c(c1)CC[C@]1(CCN(c3cnc4ccccc4c3)C1=O)C2 [Compound I-95, (R)-N-hydroxy-2′-oxo-1′-(quinolin-3-yl)-3,4-dihydro-1H-spiro[naphthalene-2,3′-pyrrolidine]-6-carboxamide]
  IC50: ≤ 100 nM

## O=C(NO)c1ccc2c(c1)CCC1(CC(=O)N(c3ccc(F)cc3)C1)C2 (single isomer, unassigned) [Compound I-227]
  IC50: ≤ 100 nM

## O=C(NO)c1ccc2c(c1)CC[C@]1(CC(=O)N(c3ccccc3)C1)C2 (single isomer, unassigned) [Compound I-203]
  IC50: ≤ 100 nM

## CC(C)(C)Nc1cc(N2CC[C@]3(CCc4cc(C(=O)NO)ccc4C3)C2=O)ncn1 [Compound I-97, (R)-1′-(6-(tert-butylamino)pyrimidin-4-yl)-N-hydroxy-2′-oxo-3,4-dihydro-1H-spiro[naphthalene-2,3′-pyrrolidine]-6-carboxamide]
  IC50: ≤ 100 nM

## O=C(NO)c1ccc2c(c1)CC[C@@]1(CCN(Cc3cccnc3)C1=O)C2 [Compound I-19, (S)-N-hydroxy-2′-oxo-1′-(pyridin-3-ylmethyl)-3,4-dihydro-1H-spiro[naphthalene-2,3′-pyrrolidine]-6-carboxamide]
  IC50: ≤ 100 nM

## CC(C)N1CCCC2(CCc3cc(C(=O)NO)ccc3C2)C1=O (single isomer, unassigned) [Compound I-191]
  IC50: ≤ 100 nM

## CC(C)c1ccc(N2CC[C@@]3(CCc4cc(C(=O)NO)ccc4C3)C2=O)cn1 [Compound I-101, (S)-N-hydroxy-1′-(6-isopropylpyridin-3-yl)-2′-oxo-3,4-dihydro-1H-spiro[naphthalene-2,3′-pyrrolidine]-6-carboxamide]
  IC50: ≤ 100 nM

## O=C(NO)c1ccc2c(c1)CCC1(CC(=O)N(c3ccccc3)C1)C2 (single isomer, unassigned) [Compound I-204]
  IC50: ≤ 100 nM

## N#Cc1ccccc1N1CC[C@]2(CCc3cc(C(=O)NO)ccc3C2)C1=O [Compound I-175, (R)-1′-(2-cyanophenyl)-N-hydroxy-2′-oxo-3,4-dihydro-1H-spiro[naphthalene-2,3′-pyrrolidine]-6-carboxamide]
  IC50: ≤ 100 nM

## COCCCN1CCCC2(CCc3cc(C(=O)NO)ccc3C2)C1=O (single isomer, unassigned) [Compound I-187]
  IC50: ≤ 100 nM

## O=C(NO)c1ccc2c(c1)CC[C@]1(CCN(c3cccnc3)C1=O)C2 [Compound I-10, (R)-N-hydroxy-2′-oxo-1′-(pyridin-3-yl)-3,4-dihydro-1H-spiro[naphthalene-2,3′-pyrrolidine]-6-carboxamide]
  IC50: ≤ 100 nM

## COc1ccccc1N1CC[C@@]2(CCc3cc(C(=O)NO)ccc3C2)C1=O [Compound I-115, (S)-N-hydroxy-1′-(2-methoxyphenyl)-2′-oxo-3,4-dihydro-1H-spiro[naphthalene-2,3′-pyrrolidine]-6-carboxamide]
  IC50: ≤ 100 nM

## O=C(NO)c1ccc2c(c1)CC[C@]1(CC(=O)N(c3ccncc3)C1)C2 [Compound I-228, (R)-N-hydroxy-5′-oxo-1′-(pyridin-4-yl)-3,4-dihydro-1H-spiro[naphthalene-2,3′-pyrrolidine]-6-carboxamide]
  IC50: ≤ 100 nM

## Cn1c(CN2CC[C@]3(CCc4cc(C(=O)NO)ccc4C3)C2=O)nc2ccccc21 [Compound I-46, (R)-N-hydroxy-1′-((1-methyl-1H-benzo[d]imidazol-2-yl)methyl)-2′-oxo-3,4-dihydro-1H-spiro[naphthalene-2,3′-pyrrolidine]-6-carboxamide]
  IC50: ≤ 100 nM

## O=C(NO)c1ccc2c(c1)CCC1(CC(=O)N(CC3CCC3)C1)C2 (single isomer, unassigned) [Compound I-210]
  IC50: ≤ 100 nM

## CN(C)c1ccc(N2CC[C@]3(CCc4cc(C(=O)NO)ccc4C3)C2=O)cc1 [Compound I-93, (R)-1′-(4-(dimethylamino)phenyl)-N-hydroxy-2′-oxo-3,4-dihydro-1H-spiro[naphthalene-2,3′-pyrrolidine]-6-carboxamide]
  IC50: ≤ 100 nM

## COCCCN1CC2(CCc3cc(C(=O)NO)ccc3C2)CC1=O (single isomer, unassigned) [Compound I-219]
  IC50: ≤ 100 nM

## COCCN1CC[C@@]2(CCc3cc(C(=O)NO)ccc3C2)C1=O [Compound I-64, (S)-N-hydroxy-1′-(2-methoxyethyl)-2′-oxo-3,4-dihydro-1H-spiro[naphthalene-2,3′-pyrrolidine]-6-carboxamide]
  IC50: 100 to 500 nM

## O=C(NO)c1ccc2c(c1)CCC1(CCN(Cc3ccccc3)C1=O)S2(=O)=O (stereo not drawn) [Compound I-239, 1-benzyl-N-hydroxy-2-oxospiro[pyrrolidine-3,2′-thiochromane]-6′-carboxamide 1′,1′-dioxide]
  IC50: 100 to 500 nM

## O=C(NO)c1ccc2c(c1)CC[C@@]1(CCN(c3ccc(F)cc3)C1=O)C2 [Compound I-154, (S)-1′-(4-fluorophenyl)-N-hydroxy-2′-oxo-3,4-dihydro-1H-spiro[naphthalene-2,3′-pyrrolidine]-6-carboxamide]
  IC50: ≤ 100 nM

## O=C(NO)c1ccc2c(c1)CC[C@@]1(CCN(c3cccc(F)c3F)C1=O)C2 [Compound I-156, (S)-1′-(2,3-difluorophenyl)-N-hydroxy-2′-oxo-3,4-dihydro-1H-spiro[naphthalene-2,3′-pyrrolidine]-6-carboxamide]
  IC50: ≤ 100 nM

## O=C(NO)c1ccc2c(c1)CCC1(CCN(c3cccnc3)C1=O)O2 (stereo not drawn) [Compound I-233, N-hydroxy-2′-oxo-1′-(pyridin-3-yl)spiro[chromane-2,3′-pyrrolidine]-6-carboxamide]
  IC50: 100 to 500 nM

## O=C(NO)c1ccc2c(c1)CC[C@]1(CCN(Cc3ccc(Cl)cc3)C1=O)C2 [Compound I-55, (R)-1′-(4-chlorobenzyl)-N-hydroxy-2′-oxo-3,4-dihydro-1H-spiro[naphthalene-2,3′-pyrrolidine]-6-carboxamide]
  IC50: ≤ 100 nM
